# Reference: US8906889B2, “C-3 cycloalkenyl triterpenoids with HIV maturation inhibitory activity” (priority 2012, dated 2014)
# Counter-ions that a name gives are not always drawn.
# System: recombinant NL4-3 virus (Renilla luciferase, Gag P373S)
# Test: HIV cell culture assay (luciferase reporter, MT-2 cells)
# Type: cell-based
# Conditions: luciferase activity
# Method: MT-2 cells and 293T cells were obtained from the NIH AIDS Research and Reference Reagent Program. MT-2 cells were propagated in RPMI 1640 media supplemented with 10% heat inactivated fetal bovine serum, […]. The 293T cells were propagated in DMEM media supplemented with 10% heat inactivated fetal bovine serum (FBS), 100 units/ml penicillin G and 100 μg/ml streptomycin. The proviral DNA clone of NL4-3 was obtained from the NIH AIDS Research and Reference Reagent Program. A recombinant NL4-3 virus, in which a section of the nef gene from NL4-3 was replaced with the Renilla luciferase gene, was used as a reference virus. In addition, residue Gag P373 was converted to P373S. Briefly, the recombinant virus was prepared by transfection of the altered proviral clone of NL4-3. Transfections were performed in 293T cells using LipofectAMINE PLUS from Invitrogen (Carlsbad, Calif.), according to manufacturer's instruction. The virus was titered in MT-2 cells using luciferase enzyme activity as a marker. Luciferase was quantitated using the Dual Luciferase kit from Promega (Madison, Wis.), with modifications to the manufacturer's protocol. The diluted Passive Lysis solution was pre-mixed with the re-suspended Luciferase Assay Reagent and the re-suspended Stop & Glo Substrate (2:1:1 ratio). Fifty (50) μL of the mixture was added to each aspirated well on assay plates and luciferase activity was measured immediately on a Wallac TriLux (Perkin-Elmer). Antiviral activities of inhibitors toward the recombinant virus were quantified by measuring luciferase activity in cells infected for 4-5 days with NLRluc recombinants in the presence serial dilutions of the inhibitor.
# [1] = Renilla, NL43, MT-2 cells infected for 4-5 days with NLRluc recombinants
# [2] = MT-2 cells infected for 4-5 days with NLRluc recombinants
Compound,EC50 [1] [nM],EC50 [2] [nM]
"C=C(C)[C@@H]1CC[C@]2(NCCN3CCC(S(C)(=O)=O)CC3)CC[C@]3(C)[C@H](CC[C@@H]4[C@@]5(C)CC=C(C6=CCC(NC(C)=O)(C(=O)O)CC6)C(C)(C)[C@@H]5CC[C@]43C)[C@@H]12 (mixture of isomers) [Example A32, 1-acetamido-4-((1R,3aS,5aR,5bR,7aR,11aS,11bR,13aR,13bR)-5a,5b,8,8,11a-pentamethyl-3a-((2-(4-(methylsulfonyl)piperidin-1-yl)ethyl)amino)-1-(prop-1-en-2-yl)-2,3,3a,4,5,5a,5b,6,7,7a,8,11,11a,11b,12,13,13a,13b-octadecahydro-1H-cyclopenta[a]chrysen-9-yl)cyclohex-3-enecarboxylic acid]",1.5,–
"C=C(C)[C@@H]1CC[C@]2(NCCN3CCC(S(C)(=O)=O)CC3)CC[C@]3(C)[C@H](CC[C@@H]4[C@@]5(C)CC=C(C6=CCC(CC(=O)O)CC6)C(C)(C)[C@@H]5CC[C@]43C)[C@@H]12 (mixture of isomers) [Example A33, 2-(4-((1R,3aS,5aR,5bR,7aR,11aS,11bR,13aR,13bR)-5a,5b,8,8,11a-pentamethyl-3a-((2-(4-(methylsulfonyl)piperidin-1-yl)ethyl)amino)-1-(prop-1-en-2-yl)-2,3,3a,4,5,5a,5b,6,7,7a,8,11,11a,11b,12,13,13a,13b-octadecahydro-1H-cyclopenta[a]chrysen-9-yl)cyclohex-3-en-1-yl)acetic acid]",570,–
"C=C(C)[C@@H]1CC[C@]2(NCCN3CCS(=O)(=O)CC3)CC[C@]3(C)[C@H](CC[C@@H]4[C@@]5(C)CC=C(C6=CC(C(=O)O)C(C(=O)O)C6)C(C)(C)[C@@H]5CC[C@]43C)[C@@H]12 (single isomer, unassigned) [Example A19]",100,–
"C=C(C)[C@@H]1CC[C@]2(NCCN3CCS(=O)(=O)CC3)CC[C@]3(C)[C@H](CC[C@@H]4[C@@]5(C)CC=C(C6=CC(C(=O)O)C(C(=O)O)C6)C(C)(C)[C@@H]5CC[C@]43C)[C@@H]12 (single isomer, unassigned) [Example A20]",–,60
"C=C(C)[C@@H]1CC[C@]2(NCCN3CCS(=O)(=O)CC3)CC[C@]3(C)[C@H](CC[C@@H]4[C@@]5(C)CC=C(C6=CC(C(F)(F)C(=O)O)CC6)C(C)(C)[C@@H]5CC[C@]43C)[C@@H]12 (single isomer, unassigned) [Example A23]",5.63,–
"C=C(C)[C@@H]1CC[C@]2(NCCN3CCS(=O)(=O)CC3)CC[C@]3(C)[C@H](CC[C@@H]4[C@@]5(C)CC=C(C6=CCC(C(F)(F)C(=O)O)C6)C(C)(C)[C@@H]5CC[C@]43C)[C@@H]12 (single isomer, unassigned) [Example A24]",4.65,–
"C=C(C)[C@@H]1CC[C@]2(NCCN3CCS(=O)(=O)CC3)CC[C@]3(C)[C@H](CC[C@@H]4[C@@]5(C)CC=C(C6=CC7C(C6)C7C(=O)O)C(C)(C)[C@@H]5CC[C@]43C)[C@@H]12 (single isomer, unassigned) [Example A26]",0.941,–
"C=C(C)[C@@H]1CC[C@]2(NCCN3CCC(S(C)(=O)=O)CC3)CC[C@]3(C)[C@H](CC[C@@H]4[C@@]5(C)CC=C(C6=CC7C(C6)C7C(=O)O)C(C)(C)[C@@H]5CC[C@]43C)[C@@H]12 (single isomer, unassigned) [Example A27]",0.921,–
"C=C(C)[C@@H]1CC[C@]2(NCCN3CCC(S(C)(=O)=O)CC3)CC[C@]3(C)[C@H](CC[C@@H]4[C@@]5(C)CC=C(C6=CC7C(C6)C7C(=O)O)C(C)(C)[C@@H]5CC[C@]43C)[C@@H]12 (single isomer, unassigned) [Example A28]",–,0.658
"C=C(C)[C@@H]1CC[C@]2(NCCN3CCS(=O)(=O)CC3)CC[C@]3(C)[C@H](CC[C@@H]4[C@@]5(C)CC=C(C6=CCC(C(=O)O)CC6)C(C)(C)[C@@H]5CC[C@]43C)[C@@H]12 (stereo in doubt) [Example 9, (R)-4-((1R,3aS,5aR,5bR,7aR,11aS,11bR,13aR,13bR)-3a-((2-(1,1-dioxidothiomorpholino)ethyl)amino)-5a,5b,8,8,11a-pentamethyl-1-(prop-1-en-2-yl)-2,3,3a,4,5,5a,5b,6,7,7a,8,11,11a,11b,12,13,13a,13b-octadecahydro-1H-cyclopenta[a]chrysen-9-yl)cyclohex-3-enecarboxylic acid, TFA]",0.892,–
"C=C(C)[C@@H]1CC[C@]2(NCCN3CCS(=O)(=O)CC3)CC[C@]3(C)[C@H](CC[C@@H]4[C@@]5(C)CC=C(C6=CCC(C(=O)O)CC6)C(C)(C)[C@@H]5CC[C@]43C)[C@@H]12 (stereo in doubt) [Example 10, (S)-4-((1R,3aS,5aR,5bR,7aR,11aS,11bR,13aR,13bR)-3a-((2-(1,1-dioxidothiomorpholino)ethyl)amino)-5a,5b,8,8,11a-pentamethyl-1-(prop-1-en-2-yl)-2,3,3a,4,5,5a,5b,6,7,7a,8,11,11a,11b,12,13,13a,13b-octadecahydro-1H-cyclopenta[a]chrysen-9-yl)cyclohex-3-enecarboxylic acid, TFA]",1.26,–
"C=C(C)[C@@H]1CC[C@]2(NCCN3CCS(=O)(=O)CC3)CC[C@]3(C)[C@H](CC[C@@H]4[C@@]5(C)CC=C(C6=CC7(C6)CC(C(=O)O)(C(=O)O)C7)C(C)(C)[C@@H]5CC[C@]43C)[C@@H]12 [Example 1, 6-((1R,3aS,5aR,5bR,7aR,11aS,11bR,13aR,13bR)-3a-((2-(1,1-dioxidothiomorpholino)ethyl)amino)-5a,5b,8,8,11a-pentamethyl-1-(prop-1-en-2-yl)-2,3,3a,4,5,5a,5b,6,7,7a,8,11,11a,11b,12,13,13a,13b-octadecahydro-1H-cyclopenta[a]chrysen-9-yl)spiro[3.3]hept-5-ene-2,2-dicarboxylic acid, HCl]",10,–
"C=C(C)[C@@H]1CC[C@]2(NCCN3CCS(=O)(=O)CC3)CC[C@]3(C)[C@H](CC[C@@H]4[C@@]5(C)C=CC(=C6CC7(C6)CC(C(=O)O)(C(=O)O)C7)C(C)(C)[C@@H]5CC[C@]43C)[C@@H]12 [Example 2, 6-((1R,3aS,5aR,5bR,7aR,11aS,11bR,13aR,13bR)-3a-((2-(1,1-dioxidothiomorpholino)ethyl)amino)-5a,5b,8,8,11a-pentamethyl-1-(prop-1-en-2-yl)-2,3,3a,4,5,5a,6,7,7a,8,11b,12,13,13a-tetradecahydro-1H-cyclopenta[a]chrysen-9(5bH,11aH,13bH)-ylidene)spiro[3.3]heptane-2,2-dicarboxylic acid, HCl]",30,–
"C=C(C)[C@@H]1CC[C@]2(NCCN3CCS(=O)(=O)CC3)CC[C@]3(C)[C@H](CC[C@@H]4[C@@]5(C)CC=C(C6=CC7(C6)CC(C(=O)O)C7)C(C)(C)[C@@H]5CC[C@]43C)[C@@H]12 (stereo partly drawn) [Example 3, 6-((1R,3aS,5aR,5bR,7aR,11aS,11bR,13aR,13bR)-3a-((2-(1,1-dioxidothiomorpholino)ethyl)amino)-5a,5b,8,8,11a-pentamethyl-1-(prop-1-en-2-yl)-2,3,3a,4,5,5a,5b,6,7,7a,8,11,11a,11b,12,13,13a,13b-octadecahydro-1H-cyclopenta[a]chrysen-9-yl)spiro[3.3]hept-5-ene-2-carboxylic acid, HCl]",1.54,–
"C=C(C)[C@@H]1CC[C@]2(NCCN3CCS(=O)(=O)CC3)CC[C@]3(C)[C@H](CC[C@@H]4[C@@]5(C)CC=C(C6=CCC(C(=O)O)CC6)C(C)(C)[C@@H]5CC[C@]43C)[C@@H]12 (stereo partly drawn) [Example 4, 4-((1R,3aS,5aR,5bR,7aR,11aS,11bR,13aR,13bR)-3a-((2-(1,1-dioxidothiomorpholino)ethyl)amino)-5a,5b,8,8,11a-pentamethyl-1-(prop-1-en-2-yl)-2,3,3a,4,5,5a,5b,6,7,7a,8,11,11a,11b,12,13,13a,13b-octadecahydro-1H-cyclopenta[a]chrysen-9-yl)cyclohex-3-enecarboxylic acid, TFA]",0.659,–
"CC(C)[C@@H]1CC[C@]2(NCCN3CCS(=O)(=O)CC3)CC[C@]3(C)[C@H](CC[C@@H]4[C@@]5(C)CC=C(C6CC7(C6)CC(C(=O)O)(C(=O)O)C7)C(C)(C)[C@@H]5CC[C@]43C)[C@@H]12 [Example 5, 6-((1S,3aS,5aR,5bR,7aR,11aS,11bR,13aR,13bR)-3a-((2-(1,1-dioxidothiomorpholino)ethyl)amino)-1-isopropyl-5a,5b,8,8,11a-pentamethyl-2,3,3a,4,5,5a,5b,6,7,7a,8,11,11a,11b,12,13,13a,13b-octadecahydro-1H-cyclopenta[a]chrysen-9-yl)spiro[3.3]heptane-2,2-dicarboxylic acid, TFA]",40,–
"C=C(C)[C@@H]1CC[C@]2(C(=O)O)CC[C@]3(C)[C@H](CC[C@@H]4[C@@]5(C)CC=C(C6=CC7(C6)CC(C(=O)O)(C(=O)O)C7)C(C)(C)[C@@H]5CC[C@]43C)[C@@H]12 [Example 6, 6-((1R,3aS,5aR,5bR,7aR,11aS,11bR,13aR,13bR)-3a-carboxy-5a,5b,8,8,11a-pentamethyl-1-(prop-1-en-2-yl)-2,3,3a,4,5,5a,5b,6,7,7a,8,11,11a,11b,12,13,13a,13b-octadecahydro-1H-cyclopenta[a]chrysen-9-yl)spiro[3.3]hept-5-ene-2,2-dicarboxylic acid]",30,–
